# Results from paper PMC8586496 (International Journal for Parasitology: Drugs and Drug …, 2021).
# Values joined by “and” are separate entries in the source; they are usually repeats but may differ in a detail not shown here. Equal entries are not always repeated.
# Assays:
# [1] = target: T1, Tca-Pgp-11.1 (Toxocara canis, UniProt A0A891XKB7); experiment: H33342 efflux inhibition assay; assay type: cell-based
# T1 sequence (A0A891XKB7 1-1282): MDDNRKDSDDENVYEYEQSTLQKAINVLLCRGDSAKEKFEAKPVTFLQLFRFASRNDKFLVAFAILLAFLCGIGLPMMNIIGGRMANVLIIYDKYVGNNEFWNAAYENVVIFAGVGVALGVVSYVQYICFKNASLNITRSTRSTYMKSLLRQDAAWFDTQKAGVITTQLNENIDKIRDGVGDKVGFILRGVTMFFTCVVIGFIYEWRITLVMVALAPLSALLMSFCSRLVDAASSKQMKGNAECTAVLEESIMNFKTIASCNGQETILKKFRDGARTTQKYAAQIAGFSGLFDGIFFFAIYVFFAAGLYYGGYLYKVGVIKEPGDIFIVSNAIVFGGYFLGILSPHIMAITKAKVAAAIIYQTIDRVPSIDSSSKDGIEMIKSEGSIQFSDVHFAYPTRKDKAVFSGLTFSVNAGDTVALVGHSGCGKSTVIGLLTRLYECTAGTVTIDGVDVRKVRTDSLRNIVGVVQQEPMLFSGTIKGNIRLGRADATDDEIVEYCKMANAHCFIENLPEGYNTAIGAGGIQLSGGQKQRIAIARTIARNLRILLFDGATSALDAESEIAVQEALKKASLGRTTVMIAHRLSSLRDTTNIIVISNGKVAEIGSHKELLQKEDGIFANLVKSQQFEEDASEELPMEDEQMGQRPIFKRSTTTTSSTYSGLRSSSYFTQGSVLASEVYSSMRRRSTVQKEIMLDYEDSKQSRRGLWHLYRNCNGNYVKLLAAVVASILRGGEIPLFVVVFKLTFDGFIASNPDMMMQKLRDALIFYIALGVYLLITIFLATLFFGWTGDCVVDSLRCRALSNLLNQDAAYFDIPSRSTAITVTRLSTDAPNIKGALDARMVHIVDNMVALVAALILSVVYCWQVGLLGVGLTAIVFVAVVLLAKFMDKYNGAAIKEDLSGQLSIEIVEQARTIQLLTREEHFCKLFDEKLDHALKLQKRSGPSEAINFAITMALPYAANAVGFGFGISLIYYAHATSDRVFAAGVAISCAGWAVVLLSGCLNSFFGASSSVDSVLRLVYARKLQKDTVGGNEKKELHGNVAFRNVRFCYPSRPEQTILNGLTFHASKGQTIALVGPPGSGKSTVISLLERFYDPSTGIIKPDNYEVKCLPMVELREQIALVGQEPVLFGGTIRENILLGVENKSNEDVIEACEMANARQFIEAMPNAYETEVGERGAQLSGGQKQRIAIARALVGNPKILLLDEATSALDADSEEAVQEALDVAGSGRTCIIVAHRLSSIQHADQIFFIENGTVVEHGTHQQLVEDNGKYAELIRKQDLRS
# [2] = system: non-transfected LLC-PK1 cells; assay type: cell-based, pig; details: possibly P-gp-independent mechanism
SMILES,IC50 [1],Effect on release of H33342 from non-transfected cells [2]
"CO[C@H]1C[C@H](O[C@@H]2/C(C)=C/C[C@@H]3C[C@@H](C[C@]4(CC[C@H](C)[C@@H](C5CCCCC5)O4)O3)OC(=O)[C@@H]3C=C(C)/C(=N/O)[C@H]4OC/C(=C\C=C\[C@@H]2C)[C@]43O)O[C@@H](C)[C@@H]1O [Selamectin, selamectin]",1020 µM,
"COc1cc2c(cc1OC)CN(CCc1ccc(NC(=O)c3cc(OC)c(OC)cc3NC(=O)c3cnc4ccccc4c3)cc1)CC2 [Tariquidar, tariquidar]",68 µM and 68.5 µM,
"C/C=C/C[C@@H](C)C(=O)[C@H]1C(=O)N[C@@H](C(C)C)C(=O)N(C)CC(=O)N(C)[C@@H](CC(C)C)C(=O)N[C@@H](C(C)C)C(=O)N(C)[C@@H](CC(C)C)C(=O)N[C@@H](C)C(=O)N[C@H](C)C(=O)N(C)[C@@H](CC(C)C)C(=O)N(C)[C@@H](CC(C)C)C(=O)N(C)[C@@H](C(C)C)C(=O)N1C [Valspodar, valspodar]",3.01 µM,
COC(=O)[C@H]1[C@H]2C[C@@H]3c4[nH]c5cc(OC)ccc5c4CCN3C[C@H]2C[C@@H](OC(=O)c2cc(OC)c(OC)c(OC)c2)[C@@H]1OC [reserpine],,enhanced release of H33342 from non-transfected cells
C=CC[C@@H]1/C=C(\C)C[C@H](C)C[C@H](OC)[C@H]2O[C@@](O)(C(=O)C(=O)N3CCCC[C@H]3C(=O)O[C@H](/C(C)=C/[C@@H]3CC[C@@H](O)[C@H](OC)C3)[C@H](C)[C@@H](O)CC1=O)[C@H](C)C[C@@H]2OC [tacrolimus],,enhanced release of H33342 from non-transfected cells
